Like-named read-outs stand apart in the source and are kept apart here.
Tests used:
TNF-α production = TNF-α production in cell culture supernatant (ELISA); assay type: cell-based, mouse; conditions: FIG. 3B
Description: (§1) Cytokine quantification. IL-1β in cell supernatants and brain tissue samples—after the different treatment groups—was quantified using the Mouse IL-1 beta/IL-1F2 DuoSet ELISA kit (R&D systems), IL-6 in cell culture supernatant was measured through the Mouse IL-6 ELISA kit (ThermoFisher), TNF-α in cell culture supernatants was determined using the Mouse TNF-alpha DuoSet ELISA (R*D systems), and IL-18 in brain tissue was measured through the IL-18 Mouse ELISA Kit (Invitrogen) following the manufacturers' recommended protocol. IL-1β precursor and cleaved IL-1β in the FC of mice treated with vehicles, LPS, or C77-LPS was assessed by western blot. All samples were run in technical duplicates.

[1] = test system: ASC specks following NLRP3 activation; test: ASC speck formation / ASC oligomerization in m-Cerulean ASC labeled macrophages; assay type: cell-based, murine; conditions: NLRP3 activation with LPS and ATP or HMGB1 and ATP (FIG. 3F)
Description: m-Cerulean ASC labeled macrophages. NLRP3 Knock Out immortalized murine macrophages, stably expressing m-Cerulean-ASC, and NLRP3-Flag were a kind donation of Prof. Eicke Latz, (Institute of Innate Immunity, University of Bonn, Germany). Murine macrophages were maintained in high glucose DMEM medium supplemented with 10% FBS, 1% sodium pyruvate, and passaged every 2-3 days, before reaching confluence.
For ASC speck formation evaluation, murine macrophages were seeded in 96 well SCREENSTAR black microplates with clear base, 24 hours before stimulation. Then, cells were incubated for 1 hour with different concentrations of the inhibitors, or with the same DMSO volume for positive and negative controls for NLRP3 activation—DMSO-LPS-ATP or only DMSO, respectively. 0.5 μM MCC950 was used as a positive control for inhibition of NLRP3-mediated ASC oligomerization. NLRP3 activation was induced through treatment with 250 ng/ml LPS for 2.5 hours, followed by addition of 4.5 mM ATP for 45 min. Cells were then fixed and counterstained in a single step, as previously described (Stutz, A. et al. ASC Speck Formation as a Readout for Inflammasome Activation. in The Inflammasome (eds. De Nardo, C. M. & Latz, E.) vol. 1040 91-101 (Humana Press, 2013).). For that, a stock solution of DRAQS in formaldehyde was used, being the final concentrations 1% formaldehyde and 2.5 μM DRAQ5.
ASC oligomerization determination. […] ASC specks in cells pretreated with C75, C77, C78, and C97, before NLRP3 activation (as above indicated), were visualized with a widefield Leica DMi8 fluorescence microscope, using the 20× objective. […] For image analysis and speck quantification, ImageJ was used https://imagej.nih.gov/ij/index.html. Speck and nuclei quantification was performed as previously described in Stutz et al. When required (overlapping nuclei), the watershed separation algorithm was used to separate the particles. […] The rate of speck positive cells was calculated by normalizing the number of speck positive cells to the number of nuclei. […]

NLRP3 inflammasome = biological target: T1, NLRP3 inflammasome (Mus musculus, UniProt Q8R4B8); test: NLRP3 inflammasome activation assay: IL-1β release by primary microglia after LPS and ATP; assay type: cell-based, murine
T1 construct: endogenous in cells; host or cells: primary microglia from cortices of 2-3 day old WT mouse pups
Description: Murine primary microglia. Mixed cortical cultures were prepared as previously described (Bronstein, R. et al. J. Vis. Exp. JoVE 50647 (2013) doi:10.3791/50647). Briefly, cortices from 2-3 days old, WT, or NLRP3 KO pups were isolated, digested, and seeded at a density of 8 cortices per 10 ml petri dish. Every three days, the medium was replaced by fresh culture medium (DMEM, 10% FBS, 1% penicillin-streptomycin). After three weeks, mixed glial cultures had reached confluence, and microglia cells were isolated by mild trypsinization as previously described (Saura, J. et al. Glia 44, 183-189 (2003)). In brief, cells were washed with culture medium without FBS and treated with a mixture of trypsin 0.25% (without EDTA) and DMEM-F12 medium in a 1:3 proportion. After an incubation period of approximately 40 min, an intact layer of mixed glial cells detached, leaving microglia attached firmly to the bottom of the Petri-dish. Pure microglia were then isolated by 15 min incubation with trypsin (0.05%)-EDTA at 37° C., followed by gentle shaking. Cells were counted and seeded at the desired density, typically 7.5·10^4 cells/well in 24 well-plates.
NLRP3 inflammasome activation assay. Primary microglia cultures were incubated with the compounds that inhibited IL-1β production in THP1 macrophages. Cells pretreated with 100 μM of the compounds—or with the same DMSO volume, in the case of control samples—were primed with 400 ng/ml LPS for 3 hours, and activated with 4.5 mM ATP for 45 minutes or […] nigericin for 1 hour. Dose-response curves were conducted by incubating microglia cultures with different concentrations of the selected compounds, ranging from 0.001 to 100 μM, 1 hour before NLRP3 activation with LPS and ATP. Supernatants were collected for IL-1β and toxicity assessments.
as §1

NLRC4 inflammasome = biological target: T2, NLRC4 inflammasome (Mus musculus, UniProt Q3UP24); test: NLRC4 inflammasome activation assay: IL-1β release, microglia from NLRP3 KO mice, LPS and flagellin; assay type: cell-based; conditions: FIG. 3A
T2 construct: endogenous in cells; host or cells: primary microglia from NLRP3 KO mice
Description: AIM2, NLRP7, and NLRC4 inflammasomes activation assays. […] AIM2 inflammasome activation was induced through the addition of 100 ng/ml LPS for 2 hours, followed by transfection of 1 μg poly(dA:dT) using Lipofectamine 2000 during 2 hours, following the manufacturer recommendations. NLRC4 was activated by treatment with 150 ng/ml LPS for 2 hours, before transfection of 1 μg flagellin during 2 hours, using lipofectamine 2000 as transfection reagent. Negative and positive controls were pre-treated with the same DMSO percentage as cells treated with the inhibitors. Negative controls were kept untreated after DMSO addition, while LPS-poly(dA:dT) or LPS-flagellin was added to positive controls for AIM2, and NLRC4 activation, respectively. For activation of the NLRP7 inflammasome different conditions were assessed: treatment of WT microglia cultures with 400 ng/ml fibroblast-stimulating lipopeptide-1 (fsl-1) for 7 hours, priming with 150 ng/ml LPS for 1 hour and treatment with 400 ng/ml fsl-1 for 7 hours, and priming with 150 ng/ml LPS and transfection of 400 ng/ml fsl-1 with lipofectamine. MCC950 was used as a negative control for NLRC4 and AIM-2 inhibition. Cells were pretreated with 5 μM MCC950 before LPS addition, and 2 hours later the NLRC4 and AIM-2 activation was induced through addition of their specific activators. Cell supernatants were collected for IL-1β measurement.
as §1

IL6 production = test: IL-6 production in cell culture supernatant (ELISA); assay type: cell-based, mouse; conditions: FIG. 3B
Description: as §1

T1 sequence (Q8R4B8 whole entry): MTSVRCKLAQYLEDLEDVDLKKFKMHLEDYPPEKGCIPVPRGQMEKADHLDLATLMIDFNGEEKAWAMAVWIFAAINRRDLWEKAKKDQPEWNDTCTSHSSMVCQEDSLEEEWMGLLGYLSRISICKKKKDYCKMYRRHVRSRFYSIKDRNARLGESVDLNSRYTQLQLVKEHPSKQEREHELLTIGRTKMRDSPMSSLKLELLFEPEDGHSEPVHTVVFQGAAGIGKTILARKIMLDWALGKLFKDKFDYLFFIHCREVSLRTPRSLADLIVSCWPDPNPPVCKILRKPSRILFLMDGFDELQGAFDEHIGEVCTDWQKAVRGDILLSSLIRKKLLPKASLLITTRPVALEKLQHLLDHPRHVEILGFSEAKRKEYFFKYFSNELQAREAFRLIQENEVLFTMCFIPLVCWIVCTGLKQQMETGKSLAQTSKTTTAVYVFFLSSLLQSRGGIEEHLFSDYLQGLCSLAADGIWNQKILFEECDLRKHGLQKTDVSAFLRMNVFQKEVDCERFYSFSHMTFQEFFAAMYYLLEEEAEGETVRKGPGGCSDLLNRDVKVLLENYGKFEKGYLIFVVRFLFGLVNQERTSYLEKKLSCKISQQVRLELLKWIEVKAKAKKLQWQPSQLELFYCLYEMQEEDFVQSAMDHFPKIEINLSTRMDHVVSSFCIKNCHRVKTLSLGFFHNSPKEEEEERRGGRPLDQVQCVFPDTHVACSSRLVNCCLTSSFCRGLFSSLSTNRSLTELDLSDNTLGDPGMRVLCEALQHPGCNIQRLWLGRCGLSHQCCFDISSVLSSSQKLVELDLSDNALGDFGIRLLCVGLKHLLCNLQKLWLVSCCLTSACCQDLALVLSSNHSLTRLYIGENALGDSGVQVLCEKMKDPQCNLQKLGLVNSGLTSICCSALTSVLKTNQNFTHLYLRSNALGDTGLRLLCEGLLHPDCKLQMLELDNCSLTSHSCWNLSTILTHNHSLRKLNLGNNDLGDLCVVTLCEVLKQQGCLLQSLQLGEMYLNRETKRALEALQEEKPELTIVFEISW
T2 sequence (Q3UP24 whole entry): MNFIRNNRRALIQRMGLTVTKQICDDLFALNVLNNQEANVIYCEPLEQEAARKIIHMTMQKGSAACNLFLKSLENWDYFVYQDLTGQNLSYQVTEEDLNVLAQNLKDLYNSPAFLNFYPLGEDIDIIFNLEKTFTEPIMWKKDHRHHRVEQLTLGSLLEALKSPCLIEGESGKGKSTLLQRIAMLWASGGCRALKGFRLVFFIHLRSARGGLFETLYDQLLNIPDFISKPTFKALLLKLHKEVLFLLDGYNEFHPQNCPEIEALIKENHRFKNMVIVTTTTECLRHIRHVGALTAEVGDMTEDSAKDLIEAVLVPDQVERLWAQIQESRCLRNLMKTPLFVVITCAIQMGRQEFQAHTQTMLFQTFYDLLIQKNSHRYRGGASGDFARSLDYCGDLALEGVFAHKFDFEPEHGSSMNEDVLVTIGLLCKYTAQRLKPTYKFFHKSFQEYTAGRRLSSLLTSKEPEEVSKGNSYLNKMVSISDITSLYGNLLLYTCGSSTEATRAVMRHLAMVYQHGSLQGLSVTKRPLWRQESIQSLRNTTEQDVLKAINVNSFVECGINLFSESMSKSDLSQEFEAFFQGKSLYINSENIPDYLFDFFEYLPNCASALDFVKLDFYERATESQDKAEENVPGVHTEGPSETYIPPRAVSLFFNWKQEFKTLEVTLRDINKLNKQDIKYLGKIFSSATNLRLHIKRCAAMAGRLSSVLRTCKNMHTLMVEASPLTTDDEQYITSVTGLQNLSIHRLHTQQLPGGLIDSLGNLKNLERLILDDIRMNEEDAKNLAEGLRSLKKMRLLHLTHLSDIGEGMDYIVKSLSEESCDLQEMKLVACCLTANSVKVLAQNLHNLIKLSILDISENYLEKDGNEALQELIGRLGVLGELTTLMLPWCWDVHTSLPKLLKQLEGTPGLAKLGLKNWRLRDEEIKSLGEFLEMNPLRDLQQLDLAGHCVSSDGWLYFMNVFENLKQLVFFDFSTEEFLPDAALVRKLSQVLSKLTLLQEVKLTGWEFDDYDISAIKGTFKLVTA

O=C(Cn1c(=O)oc2ccccc21)NCc1cncc(-c2ccsc2)c1 [Compound C77]
inhibition of TNF-α production (TNF-α production): did not inhibit | concentrations with observable reduction of speck positive cells [1]: ≥ 10 nM | inhibition of IL-1β release upon NLRP3 activation (NLRP3 inflammasome; 100 μM compound, microglia, LPS and ATP): inhibited NLRP3 with statistical significance | concentrations exerting inhibitory effects on NLRP3-mediated IL-1β (NLRP3 inflammasome; FIG. 2C, microglia, LPS and ATP): ≥ 100 nM | IC50 (NLRP3 inflammasome; FIG. 3A, read-out: NLRP3 IC50): 3.54 ± 1.3 µM | [Cx] to reach 100% of inhibition (NLRP3 inflammasome; IL-1β release, microglia, LPS and ATP): lower than 25 μM | IC50 (NLRP3 inflammasome; IL-1β release, microglia, LPS and ATP, nonlinear fit of dose-response, read-out: IC50): 4.1 ± 2.1 µM | IC50 (NLRC4 inflammasome): 4.15 ± 1.65 µM | inhibition of IL6 production (IL6 production): did not inhibit
